In article PMC6316234, “Bromopyrrole Alkaloids from the Sponge Agelas kosrae” (Marine Drugs, 2018):
Where two headings read alike, the source gives them in different places.

Columns and labels:
[1] = test system: K562; experiment: Anti-proliferative activity, SRB staining assay, K562; format: cell-based; conditions: Homo sapiens, 72 h
Experimental: (§1) Anti-proliferative activity was evaluated using SRB staining assay in various cancer cell lines (K562, A549, HCT116, MDA-MB-231, SNU638, SK-Hep-1). Cells were purchased from the American Type Culture Collection (ATCC, Rockville, MD, USA). They were cultured in media supplemented with 10% fetal bovine serum (FBS) and antibiotics–antimycotics (PSF; 100 units/mL penicillin G sodium, […], and 250 ng/mL amphotericin B). All cells were maintained at 37 °C under a humidified atmosphere containing 5% CO2. Briefly, cells were seeded in 96-well plates with various doses of compounds and incubated for 72 h. The cells were stained as previously described. First, cells were fixed with 10% trichloroacetic acid and stained with 0.4% SRB in a 1% acetic acid solution. After washing and drying, dyes were dissolved in 10 mM Tris buffer (pH 10.0) and absorbance was measured at 515 nm. The percentage of cell proliferation was determined according to the following formula: cell proliferation (%) = 100 × ((A treated − A zero day)/(A control − A zero day)), where A is the average absorbance. The IC50 values were calculated through non-linear regression analysis using TableCurve 2D v5.01 (Systat Software Inc., San Jose, CA, USA).

[2] = test system: A549; experiment: Anti-proliferative activity, SRB staining assay, A549; format: cell-based; conditions: Homo sapiens, 72 h, read-out: IC50 Anti-Proliferation A549
Experimental: as §1

[3] = test system: HCT116; experiment: Anti-proliferative activity, SRB staining assay, HCT116; format: cell-based; conditions: Homo sapiens, HCT-116, 72 h, read-out: IC50 Anti-Proliferation HCT 116
Experimental: as §1

[4] = test system: MDA-MB-231; experiment: Anti-proliferative activity, SRB staining assay, MDA-MB-231; format: cell-based; conditions: Homo sapiens, 72 h, read-out: IC50 Anti-Proliferation MDA-MB-231
Experimental: as §1

[5] = test system: SNU638; experiment: Anti-proliferative activity, SRB staining assay, SNU638; format: cell-based; conditions: Homo sapiens, SNU-638, 72 h, read-out: IC50 Anti-Proliferation SNU 638
Experimental: as §1

[6] = test system: SK-Hep-1; experiment: Anti-proliferative activity, SRB staining assay, SK-Hep-1; format: cell-based; conditions: Homo sapiens, SK-HEP1, 72 h, read-out: IC50 Anti-Proliferation SK-Hep-1
Experimental: as §1

[7] = test system: human umbilical vein endothelial cells (HUVEC); experiment: Anti-angiogenic activity, VEGF-induced tube formation assay; format: cell-based; conditions: for IC50: Homo sapiens, HUVEC, VEGF 50 ng/mL, 6 h, read-out: IC50 Anti-Angiogenesis Tube Formation
Experimental: (§2) Anti-angiogenic activity was evaluated using human umbilical vein endothelial cells (HUVEC) using previously described experimental methods. HUVEC cells were purchased from the American Type Culture Collection (ATCC, Rockville, MD, USA) and cultured in EGM-2 (Lonza, Walkerswille, MD, USA) supplemented with 10% fetal bovine serum (FBS) and antibiotics–antimycotics (PSF; 100 units/mL penicillin G sodium, […], and 250 ng/mL amphotericin B). Briefly, HUVEC cells were mixed with tested compounds in 0.5% FBS EBM-2 media stimulated with or without VEGF (50 ng/mL) on matrigel-coated 96-well plates for 6 h at 37 °C under a humidified atmosphere containing 5% CO2. After the tube formation, cells were photographed using an inverted microscope (Olympus Optical Co. Ltd., Tokyo, Japan), then images were quantified with Angiogenesis Analyzer using Image J software. Tube formation activity was calculated using the following formula: (Total segment # (tested compound) − Total segment # (VEGF−))/(Total segment # (VEGF+) − Total segment # (VEGF−)) × 100. The IC50 value was calculated through non-linear regression analysis using TableCurve 2D v5.01 (Systat Software Inc., San Jose, CA, USA). Cell viability with HUVEC cells were measured independently. First, HUVEC cells were seeded into a 96-well plate and the culture medium was replaced with a serum-free medium when it reached 60% confluency. After overnight starvation, cells were treated with samples and VEGF (50 ng/mL) in 2% FBS EBM-2 medium. Cells were further incubated for 24 h, and MTT assay was used to measure the cell viability. The formazan products were dissolved in dimethyl sulfoxide (DMSO). The absorbance was measured at 570 nm using VersaMax ELISA microplate reader (Molecular Devices, Sunnyvale, CA, USA).

[8] = test system: human umbilical vein endothelial cells (HUVEC); experiment: HUVEC cell viability, MTT assay; format: cell-based; conditions: VEGF 50 ng/mL, 24 h, read-out: IC50 Anti-Angiogenesis Cell Viability
Experimental: as §2

[9] = molecular target: Candida albicans-derived isocitrate lyase (ICL) (Candida albicans, UniProt Q9P8Q7); experiment: biochemical; format: biochemical
Experimental: A 1 mL aliquot of the reaction mixture contained 20 mM sodium phosphate buffer (pH 7.0), 1.27 mM threo-DL-(+)-isocitrate, 3.75 mM MgCl2, 4.1 mM phenylhydrazine, and 2.5 μg/mL of recombinant ICL. The reaction was immediately initiated following the addition of a substrate with or without a prescribed concentration of the inhibitor dissolved in DMSO (final concentration, 1%). Glyoxylate phenylhydrazone formation was spectrophotometrically assessed at 324 nm after incubation at 37 °C for 30 min. The percent inhibition of ICL enzyme activity for each compound was calculated relative to the inhibitor-free control and the IC50 values were calculated using nonlinear regression analysis (percent inhibition versus concentration). 3-Nitropropionic acid was used as a positive control. Protein concentrations were measured using the Bradford method with the Bio-Rad protein assay kit (Bio-Rad) and bovine serum albumin as the standard.

[10] = recombinant ICL, 37 °C, 30 min, read-out: IC50 ICL

Chain of Candida albicans-derived isocitrate lyase (ICL) (Q9P8Q7 whole entry): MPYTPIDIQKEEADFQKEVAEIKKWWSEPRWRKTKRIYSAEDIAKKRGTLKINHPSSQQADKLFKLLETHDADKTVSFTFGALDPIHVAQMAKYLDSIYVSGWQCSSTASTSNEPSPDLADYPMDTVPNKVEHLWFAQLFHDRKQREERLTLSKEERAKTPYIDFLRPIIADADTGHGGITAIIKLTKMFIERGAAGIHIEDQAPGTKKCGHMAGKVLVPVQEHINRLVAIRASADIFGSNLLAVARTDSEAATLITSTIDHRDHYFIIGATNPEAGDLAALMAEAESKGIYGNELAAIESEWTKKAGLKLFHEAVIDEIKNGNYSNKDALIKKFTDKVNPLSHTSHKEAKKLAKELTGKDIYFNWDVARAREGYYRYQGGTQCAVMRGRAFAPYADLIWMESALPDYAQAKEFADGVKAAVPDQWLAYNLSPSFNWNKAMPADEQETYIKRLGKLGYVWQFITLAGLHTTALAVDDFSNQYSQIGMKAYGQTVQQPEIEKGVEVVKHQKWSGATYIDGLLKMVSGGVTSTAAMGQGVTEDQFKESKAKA

| IC50 [1] | IC50 [2] | IC50 [3] | IC50 [4] | IC50 [5] | IC50 [6] | inhibition of isocitrate lyase (ICL) [9] | IC50 [9, 10] | SMILES | IC50 [7] | IC50 [8] | IC50 [9] | anti-angiogenic activity in the tube formation assay ([7]; non-cytotoxic concentrations range 5–20 μM) |
| --- | --- | --- | --- | --- | --- | --- | --- | --- | --- | --- | --- | --- |
| 19.1 µM | 49.3 µM | 44.1 µM | > 50 µM | 36.8 µM | > 50 µM | moderate inhibition | 22.1 µM | O=C(NC[C@H]1[C@H](CNC(=O)c2cc(Br)c[nH]2)[C@@H](C(=O)O)[C@@H]1C(=O)O)c1cc(Br)c[nH]1 [Compound 2, ageleste C] | > 40 µM | > 40 µM | – | – |
| – | – | – | – | – | – | – | – | CCN(CC)CCNC(=O)c1c(C)[nH]c(/C=C2\C(=O)Nc3ccc(F)cc32)c1C [Sunitinib, sunitinib, reference compound] | 2.41 µM | 9.92 µM | – | – |
| 1.08 µM | – | – | – | – | – | – | – | COc1cccc2c1C(=O)c1c(O)c3c(c(O)c1C2=O)C[C@@](O)(C(=O)CO)C[C@@H]3O[C@H]1C[C@H](N)[C@H](O)[C@H](C)O1 [Doxorubicin, reference compound] | – | – | – | – |
| 37.6 µM | > 50 µM | > 50 µM | > 50 µM | > 50 µM | > 50 µM | – | > 100 µM | COC(=O)[C@@H]1[C@@H](CNC(=O)c2cc(Br)c[nH]2)[C@H](CNC(=O)c2cc(Br)c[nH]2)[C@H]1C(=O)O [Compound 3, ageleste A] | > 40 µM | > 40 µM | – | – |
| – | 0.83 µM | 0.73 µM | 3.12 µM | 0.63 µM | 0.74 µM | – | – | COc1cc([C@@H]2c3cc4c(cc3[C@@H](O[C@@H]3O[C@@H]5CO[C@@H](C)O[C@H]5[C@H](O)[C@H]3O)[C@H]3COC(=O)[C@H]23)OCO4)cc(OC)c1O [Etoposide, reference compound] | – | – | – | – |
| – | – | – | – | – | – | – | – | O=C(O)CC[N+](=O)[O-] [Compound 3-NP, 3-Nitropropionic acid, reference compound] | – | – | 11.1 µM | – |
| 26.4 µM | 30.5 µM | 38.2 µM | > 50 µM | 37.1 µM | > 50 µM | – | 85.3 µM | COC(=O)[C@@H]1[C@@H](CNC(=O)c2cc(Br)c[nH]2)[C@H](CNC(=O)c2cc(Br)c[nH]2)[C@H]1C(=O)OC [Compound 4, ageleste B] | > 40 µM | > 40 µM | – | – |
| 12.9 µM | 31.3 µM | 9.93 µM | 32.8 µM | 7.92 µM | 35.2 µM | – | > 100 µM | NC1=NC(=O)C([C@@H]2[C@@H](CNC(=O)c3cc(Br)c[nH]3)[C@H](CNC(=O)c3cc(Br)c[nH]3)[C@H]2C2NC(N)=NC2=O)N1 (mixture of isomers) [Compound 1, dioxysceptrin] | 7.99 µM | > 40 µM | – | moderate anti-angiogenic activity |
